Results on 34 molecules are retold here after PubChem BioAssay AID743352 (Broad Institute, 2014).

Active and inactive are the calls of the source. How the calls were made is not given here.

This assay deals with M. tuberculosis BioA-TetON underexpression strain, growth inhibition. The experiment in a line: antitubercular growth inhibition, bioa underexpression strain, cell based, dry powder, single point (AID 743352).
As a reminder, the IC90 is the point of the concentration-response curve where the effect stands at 90%. Consider `CC(=O)c1ccc(NCCNC(=O)c2ccc3c(c2)OCO3)cc1`, for which the IC90 was > 50 µM (inactive).

Regarding `CN1c2ccc(-c3cccc(F)c3)cc2[C@@H]2[C@@H](CCN2C(=O)c2ccc3c(c2)OCO3)[C@@H]1CO`, the IC90 is > 50 µM (inactive). For the molecule `CNC(=O)c1ccc(N2CCN(C(=O)c3ccc4c(c3)OCO4)CC2)cc1`, the IC90 is > 50 µM (inactive). Then `CN1c2ccc(-c3ccc(F)cc3)cc2[C@H]2[C@H](CCN2C(=O)Cc2cccnc2)[C@H]1CO`, with > 50 µM (inactive); and `CC(C)NC(=O)N1CC[C@@H]2[C@@H](CO)N(C)c3ccc(-c4ccc(F)cc4)cc3[C@@H]21`, with > 50 µM (inactive); and `CN1c2ccc(-c3ccc(F)cc3)cc2[C@H]2[C@H](CCN2C(=O)Nc2ccc(F)cc2)[C@H]1CO`, with > 50 µM (inactive).

For `CC(=O)c1ccc(N2CCN(C(=O)c3ccc4c(c3)OCO4)[C@H](C)C2)cc1`, the IC90 is 17.3 µM. Take `CN1c2ccc(-c3cccc(F)c3)cc2[C@H]2[C@H](CCN2C(=O)Cc2ccccc2)[C@H]1CO`: the IC90 was > 50 µM (inactive). On to `CN(C)C(=O)c1ccc(N2CCN(C(=O)c3ccc4c(c3)OCO4)CC2)cc1`, for which the IC90 was > 50 µM (inactive). Then `CN1c2ccc(-c3cccc(F)c3)cc2[C@H]2[C@H](CCN2C(=O)c2ccc3c(c2)OCO3)[C@@H]1CO`, with > 50 µM (inactive); and `CC(=O)c1ccc(N2CCN(C(=O)c3ccccc3Cl)CC2)cc1`, with > 50 µM (inactive); and `CC(=O)c1ccc(N2CC3(CN(C(=O)c4ccc5c(c4)OCO5)C3)C2)cc1`, with > 50 µM (inactive). `CCC(=O)N1CC[C@@H]2[C@@H](CO)N(C)c3ccc(-c4ccc(F)cc4)cc3[C@@H]21`: the IC90 was > 50 µM (inactive). Consider `CN1c2ccc(-c3cccc(F)c3)cc2[C@H]2[C@H](CCN2C(=O)Nc2ccccc2F)[C@H]1CO`, for which the IC90 was > 50 µM (inactive). Turning to `COc1cccc(NC(=O)N2CC[C@@H]3[C@@H](CO)N(C)c4ccc(-c5cccc(F)c5)cc4[C@@H]32)c1`, the IC90 was > 50 µM (inactive). With `COC(=O)CCCCCCC(=O)N1CC[C@@H]2[C@@H](CO)N(C)c3ccc(-c4cccc(F)c4)cc3[C@@H]21`, the IC90 was > 50 µM (inactive). With `CN1c2ccc(-c3cccc(F)c3)cc2[C@H]2[C@H](CCN2C(=O)CCCCCCC(=O)O)[C@H]1CO`, the IC90 was > 50 µM (inactive). For the molecule `CN1c2ccc(-c3ccc(F)cc3)cc2[C@H]2[C@H](CCN2C(=O)Nc2cc(F)ccc2F)[C@H]1CO`, the IC90 is > 50 µM (inactive). For `CNS(=O)(=O)c1ccc(N2CCN(C(=O)c3ccc4c(c3)OCO4)CC2)cc1`, the IC90 is > 50 µM (inactive). For `CC(C)NC(=O)N1CC[C@@H]2[C@@H](CO)N(C)c3ccc(-c4cccc(F)c4)cc3[C@@H]21`, the IC90 was > 50 µM (inactive). With `COc1ccccc1NC(=O)N1CC[C@@H]2[C@@H](CO)N(C)c3ccc(-c4ccc(F)cc4)cc3[C@@H]21`, the IC90 was > 50 µM (inactive). Then `COc1ccc(NC(=O)N2CC[C@@H]3[C@@H](CO)N(C)c4ccc(-c5cccc(F)c5)cc4[C@@H]32)cc1`, with > 50 µM (inactive); and `COc1ccccc1NC(=O)N1CC[C@@H]2[C@@H](CO)N(C)c3ccc(-c4cccc(F)c4)cc3[C@@H]21`, with > 50 µM (inactive). Then `COc1ccc(NC(=O)N2CC[C@@H]3[C@@H](CO)N(C)c4ccc(-c5ccc(F)cc5)cc4[C@@H]32)cc1`, with > 50 µM (inactive); and `CC(=O)c1ccc(N2CCN(C(=O)c3ccc4c(c3)OCO4)CC2)cc1`, with 22.2 µM. For `CN1c2ccc(-c3cccc(F)c3)cc2[C@H]2[C@H](CCN2C(=O)CCCCCCN)[C@H]1CO`, the IC90 was > 50 µM (inactive). For `CC(=O)c1ccc(N2CCN(C(=O)c3ccccc3F)CC2)cc1`, the IC90 is > 50 µM (inactive). As to `COc1ccccc1C(=O)N1CCN(c2ccc(C(C)=O)cc2)CC1`, the IC90 was > 50 µM (inactive).

As to `COCC(=O)N1CC[C@@H]2[C@@H](CO)N(C)c3ccc(-c4cccc(F)c4)cc3[C@@H]21`, the IC90 was > 50 µM (inactive). For `CN1c2ccc(-c3ccc(F)cc3)cc2[C@H]2[C@H](CCN2C(=O)Cc2ccccn2)[C@H]1CO` the value was > 50 µM (inactive); for `CN1c2ccc(-c3cccc(F)c3)cc2[C@H]2[C@H](CCN2C(=O)Cc2cccnc2)[C@H]1CO`, > 50 µM (inactive); for `CCCCCCCC(=O)N1CC[C@@H]2[C@@H](CO)N(C)c3ccc(-c4cccc(F)c4)cc3[C@@H]21`, > 50 µM (inactive). In the case of `CCCNC(=O)N1CC[C@@H]2[C@@H](CO)N(C)c3ccc(-c4ccc(F)cc4)cc3[C@@H]21`, the IC90 is > 50 µM (inactive).

As to `CN1c2ccc(-c3cccc(F)c3)cc2[C@@H]2[C@@H](CCN2C(=O)c2ccc3c(c2)OCO3)[C@H]1CO`, the IC90 was > 50 µM (inactive).
